Literature values, collected in patent US8067434B2, “Compounds and methods for development of Ret modulators” (Plexxikon Inc., priority 2003, dated 2011).

Columns and labels:
[1] = system: TT cells, with RetC634 mutant; conditions: TT cells in RPMI medium, varying concentrations
[2] = system: Ret; conditions: DAergic neuron cultures
[3] = system: Ret transformed NIH3T3; conditions: Ret transformed NIH3T3, treatment with inhibitor
[4] = system: Ret kinase; conditions: incubation with the inhibitor

Row | Compound | cell growth [1] | also measured
1 | O=c1c(-c2ccc(O)cc2)coc2cc(O)cc(O)c12 [genistein] | inhibiting cell growth | 
2 | C[C@]12O[C@H](C[C@]1(O)C(=O)O)n1c3ccccc3c3c4c(c5c6ccccc6n2c5c31)CNC4=O [Compound K-252b, K-252b] |  | normal functioning of Ret in GDNF-induced differentiation [2]: inhibited
3 | CO[C@H]1[C@@H](OC)C[C@H](C)[C@@H](OC)C2=CC(=O)C=C(NC(=O)/C(C)=C/C=C\[C@H](OC)[C@@H](OC(N)=O)/C(C)=C/[C@@H]1C)C2=O [herbimycin A] |  | cellular phenotype [3]: reverted the cellular phenotype to a more untransformed flat morphology; intracellular Ret kinase activity [4]: decreased
4 | Cc1ccc(NC(=O)c2ccc(CN3CCN(C)CC3)cc2)cc1Nc1nccc(-c2cccnc2)n1 [STI571] | inhibiting cell growth | 
5 | C=CCNC1=C2C[C@@H](C)C[C@H](OC)[C@H](O)[C@@H](C)/C=C(\C)[C@H](OC(N)=O)[C@@H](OC)/C=C\C=C(/C)C(=O)NC(=CC1=O)C2=O [allyl-geldanamycin] | inhibiting cell growth | 
